Data reported in ChEMBL document CHEMBL4507263, “Data for DCP probe BAY-474” (2021).

Columns and labels:
[1] = target: Serine/threonine-protein kinase PAK 6 (Homo sapiens) (UniProt Q9NQU5); settings: Compound concentration 1000.0 nM
[2] = system: eIF-2-alpha kinase GCN2 (Homo sapiens), Q9P2K8 [S808G]; settings: Compound concentration 1000.0 nM
[3] = target: Mitogen-activated protein kinase kinase kinase 1 (Homo sapiens) (UniProt Q13233); settings: Compound concentration 1000.0 nM
[4] = target: Tyrosine-protein kinase BTK (Homo sapiens) (UniProt Q06187); settings: Compound concentration 1000.0 nM
[5] = target: LIM domain kinase 2 (Homo sapiens) (UniProt P53671); settings: Compound concentration 1000.0 nM
[6] = target: Serine/threonine-protein kinase RIO2 (Homo sapiens) (UniProt Q9BVS4); settings: Compound concentration 1000.0 nM
[7] = target: RAC-alpha serine/threonine-protein kinase (Homo sapiens) (UniProt P31749); settings: Compound concentration 1000.0 nM
Sequence of RAC-alpha serine/threonine-protein kinase (Homo sapiens) (P31749 whole entry): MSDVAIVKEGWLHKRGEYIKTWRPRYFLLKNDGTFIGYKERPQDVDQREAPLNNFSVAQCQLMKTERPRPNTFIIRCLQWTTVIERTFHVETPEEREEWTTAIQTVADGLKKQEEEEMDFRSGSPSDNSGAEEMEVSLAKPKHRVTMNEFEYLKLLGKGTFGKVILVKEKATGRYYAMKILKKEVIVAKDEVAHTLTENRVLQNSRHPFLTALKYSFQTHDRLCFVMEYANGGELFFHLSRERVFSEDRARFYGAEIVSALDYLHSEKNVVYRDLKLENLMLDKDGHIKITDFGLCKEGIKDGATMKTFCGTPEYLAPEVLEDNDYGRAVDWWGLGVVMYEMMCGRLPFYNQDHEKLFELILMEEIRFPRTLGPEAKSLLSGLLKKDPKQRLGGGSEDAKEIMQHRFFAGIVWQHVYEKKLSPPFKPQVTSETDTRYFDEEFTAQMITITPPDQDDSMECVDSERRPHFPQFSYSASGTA

[8] = target: SRSF protein kinase 2 (Homo sapiens) (UniProt P78362); settings: Compound concentration 1000.0 nM
[9] = target: cGMP-dependent protein kinase 2 (Homo sapiens) (UniProt Q13237); settings: Compound concentration 1000.0 nM
Sequence of cGMP-dependent protein kinase 2 (Homo sapiens) (Q13237 whole entry): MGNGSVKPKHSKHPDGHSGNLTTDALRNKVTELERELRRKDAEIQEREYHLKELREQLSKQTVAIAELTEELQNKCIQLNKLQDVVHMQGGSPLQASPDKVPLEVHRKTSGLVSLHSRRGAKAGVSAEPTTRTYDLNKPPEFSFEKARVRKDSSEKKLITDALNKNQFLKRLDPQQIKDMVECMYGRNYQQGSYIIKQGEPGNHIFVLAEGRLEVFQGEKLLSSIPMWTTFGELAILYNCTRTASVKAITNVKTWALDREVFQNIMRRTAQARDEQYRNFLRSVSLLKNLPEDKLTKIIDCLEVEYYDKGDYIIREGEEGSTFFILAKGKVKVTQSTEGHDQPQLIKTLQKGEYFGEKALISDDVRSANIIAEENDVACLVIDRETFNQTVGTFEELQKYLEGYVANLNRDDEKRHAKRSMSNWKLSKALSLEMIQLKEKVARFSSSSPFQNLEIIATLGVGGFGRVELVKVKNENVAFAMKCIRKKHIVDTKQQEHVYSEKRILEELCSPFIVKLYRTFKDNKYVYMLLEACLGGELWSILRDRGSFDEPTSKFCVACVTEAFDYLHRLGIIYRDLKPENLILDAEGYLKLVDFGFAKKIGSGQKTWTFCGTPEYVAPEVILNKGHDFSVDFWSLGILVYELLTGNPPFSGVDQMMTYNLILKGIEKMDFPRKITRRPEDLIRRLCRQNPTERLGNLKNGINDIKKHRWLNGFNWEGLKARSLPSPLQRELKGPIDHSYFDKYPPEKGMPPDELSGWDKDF

[10] = target: Serine/threonine-protein kinase 32A (Homo sapiens) (UniProt Q8WU08); settings: Compound concentration 1000.0 nM
Sequence of Serine/threonine-protein kinase 32A (Homo sapiens) (Q8WU08 whole entry): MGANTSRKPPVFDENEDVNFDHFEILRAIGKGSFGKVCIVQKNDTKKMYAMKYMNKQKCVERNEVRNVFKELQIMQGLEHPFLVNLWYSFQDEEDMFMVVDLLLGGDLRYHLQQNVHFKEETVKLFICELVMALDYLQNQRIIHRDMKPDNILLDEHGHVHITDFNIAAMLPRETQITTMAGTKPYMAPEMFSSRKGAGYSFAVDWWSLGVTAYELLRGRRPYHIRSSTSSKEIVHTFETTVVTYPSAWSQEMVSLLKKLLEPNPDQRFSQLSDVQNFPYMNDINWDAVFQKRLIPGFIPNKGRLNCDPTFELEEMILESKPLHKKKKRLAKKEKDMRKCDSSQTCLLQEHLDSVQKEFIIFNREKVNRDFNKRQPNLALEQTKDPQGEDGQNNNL

[11] = target: Calcium/calmodulin-dependent protein kinase type II subunit alpha (Homo sapiens) (UniProt Q9UQM7); settings: Compound concentration 1000.0 nM
Sequence of Calcium/calmodulin-dependent protein kinase type II subunit alpha (Homo sapiens) (Q9UQM7 whole entry, canonical isoform): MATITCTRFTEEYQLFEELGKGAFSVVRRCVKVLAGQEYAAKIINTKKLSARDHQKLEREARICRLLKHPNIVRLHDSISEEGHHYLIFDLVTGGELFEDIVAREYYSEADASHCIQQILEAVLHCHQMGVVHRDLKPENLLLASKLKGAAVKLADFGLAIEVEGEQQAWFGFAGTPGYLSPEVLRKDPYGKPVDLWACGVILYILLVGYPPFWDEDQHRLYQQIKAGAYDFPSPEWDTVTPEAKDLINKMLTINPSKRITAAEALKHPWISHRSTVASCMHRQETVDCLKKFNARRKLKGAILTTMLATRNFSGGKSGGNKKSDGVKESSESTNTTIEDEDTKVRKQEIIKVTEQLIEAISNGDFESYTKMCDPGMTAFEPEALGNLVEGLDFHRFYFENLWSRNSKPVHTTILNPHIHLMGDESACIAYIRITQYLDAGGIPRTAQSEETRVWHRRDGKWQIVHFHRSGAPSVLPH

[12] = system: Phosphatidylinositol 4,5-bisphosphate 3-kinase catalytic subunit alpha isoform (Homo sapiens), P42336 [M1043I]; settings: Compound concentration 1000.0 nM
[13] = system: Leucine-rich repeat serine/threonine-protein kinase 2 (Homo sapiens), Q5S007 [G2019S]; settings: Compound concentration 1000.0 nM
[14] = target: Calcium/calmodulin-dependent protein kinase type IV (Homo sapiens) (UniProt Q16566); settings: Compound concentration 1000.0 nM
Sequence of Calcium/calmodulin-dependent protein kinase type IV (Homo sapiens) (Q16566 whole entry): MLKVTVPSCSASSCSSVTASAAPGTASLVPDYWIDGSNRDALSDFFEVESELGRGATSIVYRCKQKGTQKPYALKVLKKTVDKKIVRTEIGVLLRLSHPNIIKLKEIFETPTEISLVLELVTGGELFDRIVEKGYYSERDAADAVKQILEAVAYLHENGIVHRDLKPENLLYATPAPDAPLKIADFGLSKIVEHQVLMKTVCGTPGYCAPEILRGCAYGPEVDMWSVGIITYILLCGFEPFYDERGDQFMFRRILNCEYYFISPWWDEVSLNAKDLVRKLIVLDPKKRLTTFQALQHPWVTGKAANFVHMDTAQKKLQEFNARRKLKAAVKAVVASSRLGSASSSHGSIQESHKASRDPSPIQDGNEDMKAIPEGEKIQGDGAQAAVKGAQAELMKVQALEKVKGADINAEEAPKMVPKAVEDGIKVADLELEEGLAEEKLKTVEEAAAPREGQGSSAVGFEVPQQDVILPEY

[15] = target: Serine/threonine-protein kinase MARK2 (Homo sapiens) (UniProt Q7KZI7); settings: Compound concentration 1000.0 nM
Sequence of Serine/threonine-protein kinase MARK2 (Homo sapiens) (Q7KZI7 whole entry, canonical isoform): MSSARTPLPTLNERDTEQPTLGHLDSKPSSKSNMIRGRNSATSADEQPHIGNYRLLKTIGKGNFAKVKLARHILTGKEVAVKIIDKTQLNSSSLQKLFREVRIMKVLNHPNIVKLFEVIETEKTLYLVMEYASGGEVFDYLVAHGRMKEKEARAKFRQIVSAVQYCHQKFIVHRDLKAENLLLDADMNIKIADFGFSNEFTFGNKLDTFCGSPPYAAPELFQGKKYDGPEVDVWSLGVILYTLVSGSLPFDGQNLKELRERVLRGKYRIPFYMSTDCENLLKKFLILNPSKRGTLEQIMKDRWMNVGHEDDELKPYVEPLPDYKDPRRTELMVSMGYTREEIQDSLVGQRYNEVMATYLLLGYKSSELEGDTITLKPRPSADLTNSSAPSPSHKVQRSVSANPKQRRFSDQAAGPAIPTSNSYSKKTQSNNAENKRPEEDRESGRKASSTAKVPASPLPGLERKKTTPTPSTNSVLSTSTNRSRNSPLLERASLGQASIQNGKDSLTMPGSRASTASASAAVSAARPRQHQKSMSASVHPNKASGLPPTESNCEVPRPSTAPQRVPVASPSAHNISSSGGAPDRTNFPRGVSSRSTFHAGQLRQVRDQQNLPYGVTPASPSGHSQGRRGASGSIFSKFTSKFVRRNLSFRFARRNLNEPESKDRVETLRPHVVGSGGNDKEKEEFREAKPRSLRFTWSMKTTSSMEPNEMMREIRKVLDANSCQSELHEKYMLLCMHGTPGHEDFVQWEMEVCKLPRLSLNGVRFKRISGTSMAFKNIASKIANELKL

[16] = system: Phosphatidylinositol 4,5-bisphosphate 3-kinase catalytic subunit alpha isoform (Homo sapiens), P42336 [Q546K]; settings: Compound concentration 1000.0 nM
[17] = target: Calcium/calmodulin-dependent protein kinase type II subunit gamma (Homo sapiens) (UniProt Q13555); settings: Compound concentration 1000.0 nM
[18] = system: Tyrosine-protein kinase ABL1 (Homo sapiens), P00519 [T315I]; settings: Compound concentration 1000.0 nM
[19] = target: Serine/threonine-protein kinase SIK3 (Homo sapiens) (UniProt Q9Y2K2); settings: Compound concentration 1000.0 nM
[20] = target: Mitogen-activated protein kinase 8 (Homo sapiens) (UniProt P45983); assay: JNK1alpha1 (h) Millipore kinase activity assay; settings: Compound concentration 1.0 uM
[21] = target: Sodium-dependent serotonin transporter (Homo sapiens) (UniProt P31645); settings: Compound concentration 10.0 uM
Sequence of Sodium-dependent serotonin transporter (Homo sapiens) (P31645 whole entry, looked up): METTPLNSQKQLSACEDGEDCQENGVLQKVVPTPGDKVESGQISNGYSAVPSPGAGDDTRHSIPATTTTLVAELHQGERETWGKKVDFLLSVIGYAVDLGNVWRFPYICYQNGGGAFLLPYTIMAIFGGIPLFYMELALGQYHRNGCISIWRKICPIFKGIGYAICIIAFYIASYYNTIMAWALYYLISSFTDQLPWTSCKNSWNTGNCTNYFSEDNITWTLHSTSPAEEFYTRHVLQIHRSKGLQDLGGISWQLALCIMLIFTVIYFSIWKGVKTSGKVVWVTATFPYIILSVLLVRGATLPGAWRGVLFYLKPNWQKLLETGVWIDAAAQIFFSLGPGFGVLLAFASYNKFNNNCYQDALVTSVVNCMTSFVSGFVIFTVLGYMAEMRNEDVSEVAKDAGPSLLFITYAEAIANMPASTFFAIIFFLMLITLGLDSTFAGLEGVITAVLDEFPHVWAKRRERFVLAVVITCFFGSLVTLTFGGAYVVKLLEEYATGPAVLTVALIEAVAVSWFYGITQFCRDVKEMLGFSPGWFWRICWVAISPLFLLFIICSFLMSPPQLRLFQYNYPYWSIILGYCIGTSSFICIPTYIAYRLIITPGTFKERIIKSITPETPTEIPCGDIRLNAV

[22] = target: Adenosine receptor A2a (Homo sapiens) (UniProt P29274); settings: Compound concentration 10.0 uM
Sequence of Adenosine receptor A2a (Homo sapiens) (P29274 whole entry): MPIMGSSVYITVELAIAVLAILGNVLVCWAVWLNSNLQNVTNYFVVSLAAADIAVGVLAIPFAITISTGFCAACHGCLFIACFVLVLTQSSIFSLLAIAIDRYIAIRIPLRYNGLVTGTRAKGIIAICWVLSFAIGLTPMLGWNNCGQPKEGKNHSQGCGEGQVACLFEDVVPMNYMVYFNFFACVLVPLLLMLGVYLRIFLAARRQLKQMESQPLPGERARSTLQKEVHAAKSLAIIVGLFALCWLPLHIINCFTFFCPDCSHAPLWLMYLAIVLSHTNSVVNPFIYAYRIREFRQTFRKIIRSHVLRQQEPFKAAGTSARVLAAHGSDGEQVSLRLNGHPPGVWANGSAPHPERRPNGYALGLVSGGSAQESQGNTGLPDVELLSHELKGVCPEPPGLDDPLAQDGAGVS

[23] = target: T1, cGMP-dependent protein kinase 1 (Homo sapiens) (UniProt Q13976); assay: PKG1alpha (h) Millipore kinase activity assay; settings: Compound concentration 1.0 uM
T1 sequence (whole entry): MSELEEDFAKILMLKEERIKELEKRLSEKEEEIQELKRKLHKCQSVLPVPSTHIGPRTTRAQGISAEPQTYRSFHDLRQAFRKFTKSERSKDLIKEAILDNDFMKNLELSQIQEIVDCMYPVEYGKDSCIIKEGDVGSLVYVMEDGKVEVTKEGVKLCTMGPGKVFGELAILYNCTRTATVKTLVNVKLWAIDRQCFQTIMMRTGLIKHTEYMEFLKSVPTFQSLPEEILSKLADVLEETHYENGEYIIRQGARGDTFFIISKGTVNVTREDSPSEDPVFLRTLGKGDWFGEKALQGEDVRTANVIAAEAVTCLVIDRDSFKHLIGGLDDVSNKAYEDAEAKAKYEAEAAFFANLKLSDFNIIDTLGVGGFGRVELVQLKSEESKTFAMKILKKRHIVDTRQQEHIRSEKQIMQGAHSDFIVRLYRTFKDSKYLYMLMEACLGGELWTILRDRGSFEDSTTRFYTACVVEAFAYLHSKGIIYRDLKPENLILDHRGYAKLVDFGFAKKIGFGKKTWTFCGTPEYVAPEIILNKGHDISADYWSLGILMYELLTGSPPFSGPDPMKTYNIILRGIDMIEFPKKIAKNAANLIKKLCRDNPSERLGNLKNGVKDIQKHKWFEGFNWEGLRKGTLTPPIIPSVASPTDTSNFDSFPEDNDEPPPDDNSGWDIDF

Mus musculus = species: Mus musculus; assay: Inhibition of Phorbol Ester at 10 µM in the Eurofins-Panlabs radioligand binding assay (Eurofins_assay_264500); set-up: ligand concentration 3 nM; settings: Compound concentration 10.0 uM
[24] = target: Gamma-aminobutyric acid type B receptor subunit 1 (Homo sapiens) (UniProt Q9UBS5); assay: Inhibition of GABAB1A at compound concentration of 10.0 uM in the Eurofins-Panlabs radioligand binding assay (Eurofins_assay_228610); set-up: ligand concentration 4 nM; settings: Compound concentration 10.0 uM
[25] = target: Serine/threonine-protein kinase PAK 4 (Homo sapiens) (UniProt O96013); assay: PAK4 (h) Millipore kinase activity assay; settings: Compound concentration 1.0 uM
[26] = target: Ephrin type-B receptor 3 (Homo sapiens) (UniProt P54753); assay: EphB3 (h) Millipore kinase activity assay; settings: Compound concentration 1.0 uM
[27] = target: Serine/threonine-protein kinase ULK3 (Homo sapiens) (UniProt Q6PHR2); assay: ULK3 (h) Millipore kinase activity assay; settings: Compound concentration 1.0 uM
Sequence of Serine/threonine-protein kinase ULK3 (Homo sapiens) (Q6PHR2 whole entry): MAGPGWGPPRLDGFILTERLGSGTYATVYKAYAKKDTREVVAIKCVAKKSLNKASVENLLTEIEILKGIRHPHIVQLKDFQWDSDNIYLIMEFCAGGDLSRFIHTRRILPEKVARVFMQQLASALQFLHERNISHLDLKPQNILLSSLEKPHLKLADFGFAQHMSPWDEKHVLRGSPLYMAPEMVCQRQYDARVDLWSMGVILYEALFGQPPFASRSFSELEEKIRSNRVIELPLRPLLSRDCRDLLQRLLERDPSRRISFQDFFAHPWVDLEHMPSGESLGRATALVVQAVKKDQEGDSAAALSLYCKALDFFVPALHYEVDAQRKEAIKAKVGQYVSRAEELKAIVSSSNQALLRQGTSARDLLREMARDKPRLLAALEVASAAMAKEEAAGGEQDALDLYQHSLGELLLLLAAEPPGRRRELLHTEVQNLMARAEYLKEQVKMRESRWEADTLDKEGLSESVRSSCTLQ

[28] = target: Serine/threonine-protein kinase Nek3 (Homo sapiens) (UniProt P51956); assay: NEK3 (h) Millipore kinase activity assay; settings: Compound concentration 1.0 uM
[29] = target: Protein kinase C beta type (Homo sapiens) (UniProt P05771); assay: PKCbetaII (h) Millipore kinase activity assay; settings: Compound concentration 1.0 uM

Q: How did the residual activity [1] turn out when CC1=C(C#N)[C@@H](c2ccc3[nH]nc(C)c3c2)C(C#N)=C(c2ccc(Cl)cc2)N1 [BAY-827] was run?
A: 100%

Q: What about the residual activity [2] of the same compound?
A: 89.9%

Q: And the residual activity [3]?
A: 100%

Q: What about the residual activity [4] of the same compound?
A: 99.9%

Q: And the residual activity [5]?
A: 91.1%

Q: And the residual activity [6]?
A: 100%

Q: And the residual activity [7]?
A: 100%

Q: And the residual activity [8]?
A: 100%

Q: What about the residual activity [9] of the same compound?
A: 100%

Q: What about the residual activity [10] of the same compound?
A: 100%

Q: What about the residual activity [11] of the same compound?
A: 100%

Q: What about the residual activity [12] of the same compound?
A: 25.2%

Q: And the residual activity [13]?
A: 79.5%

Q: What about the residual activity [14] of the same compound?
A: 31.8%

Q: What about the residual activity [15] of the same compound?
A: 100%

Q: And the residual activity [16]?
A: 93.7%

Q: And the residual activity [17]?
A: 100%

Q: What about the residual activity [18] of the same compound?
A: 100%

Q: And the residual activity [19]?
A: 100%

Q: With CC1=C(C#N)C(c2ccc3[nH]nc(C)c3c2)C(C#N)=C(C)N1 [BAY-474] as the compound, how does the inhibition [20] read?
A: -8%

Q: And the inhibition [21]?
A: 9%

Q: And the inhibition [22]?
A: 7%

Q: And the inhibition [23]?
A: 7%

Q: What about the inhibition (Mus musculus) of the same compound?
A: 4%

Q: And the inhibition [24]?
A: 0%

Q: What about the inhibition [25] of the same compound?
A: 3%

Q: What about the inhibition [26] of the same compound?
A: -5%

Q: What about the inhibition [27] of the same compound?
A: -5%

Q: What about the inhibition [28] of the same compound?
A: -9%

Q: And the inhibition [29]?
A: 7%
